Drawing on patent US12145923B2, “Tetrahydroisoquinoline compound, preparation method therefor, pharmaceutical composition containing same, and use thereof” (SHANGHAI INSTITUTE OF MATERIA MEDICA, CHINESE ACADEMY OF …, priority 2018, dated 2024), this text covers inhibition for 11 compounds.

The assay has as its target Human PDE4D catalytic domain (Homo sapiens (Human), UniProt Q08499). Kind of assay: Scintillation Proximity Assay (SPA), inhibition of PDE4D catalytic domain activity. The class given is biochemical. To be noted: read-out: PDE4D enzyme activity inhibition rate %. (Scintillation proximity formats need no separation of bound from free tracer.)

Read-outs that look alike come from different tables or passages of the source.

Sequence of Human PDE4D catalytic domain (Q08499 386-715): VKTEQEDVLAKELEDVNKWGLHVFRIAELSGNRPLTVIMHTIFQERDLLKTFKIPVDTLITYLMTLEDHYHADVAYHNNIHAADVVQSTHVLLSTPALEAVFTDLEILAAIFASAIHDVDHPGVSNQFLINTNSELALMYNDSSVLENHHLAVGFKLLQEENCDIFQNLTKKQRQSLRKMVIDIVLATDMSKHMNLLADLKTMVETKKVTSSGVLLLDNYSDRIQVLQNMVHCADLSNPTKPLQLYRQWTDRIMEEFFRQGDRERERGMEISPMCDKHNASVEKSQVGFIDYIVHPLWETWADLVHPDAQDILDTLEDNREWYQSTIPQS

With `CCOc1cc2c(cc1OC)CCN(S(=O)(=O)c1cccc(F)c1)[C@H]2CCc1c[nH]c2ccc(OC)cc12` [(S)-C50, (S)-7-ethoxy-6-methoxy-1-(2-(5-methoxy-1H-indol-3-yl)ethyl)-2-(3-fluorophenyl)sulfonyl-1,2,3,4-tetrahydroisoquinoline], the inhibition – broadly, the change of the read-out against control, counted positive when it falls – at 1 µM (Compound concentration: 1 μM) is 49.4%. Consider `COc1ccc2[nH]cc(CC[C@H]3c4cc(OC(F)F)c(OC)cc4CCN3C=O)c2c1` [(S)-C64, (S)-7-difluoromethoxy-1-(2-(5-methoxy-1H-indol-3-yl)ethyl)-6-methoxy-3,4-dihydroisoquinoline-2(1H)-formaldehyde], for which the inhibition at 1 µM came out at 76.5%. Consider `CCOc1cc2c(cc1OC)CCN(S(=O)(=O)C1CC1)[C@H]2CCc1c[nH]c2ccc(OC)cc12` [(S)-C48, (S)-7-ethoxy-6-methoxy-1-(2-(5-methoxy-1H-indol-3-yl)ethyl)-2-cyclopropylsulfonyl-1,2,3,4-tetrahydroisoquinoline], for which the inhibition at 1 µM (Compound concentration: 1 μM) came to 62%. Same read-out and setting: next, `COc1cc2c(cc1OC)[C@H](CCc1csc3ccccc13)N(C=O)CC2` [(S)-C61, (S)-1-(2-(benzo[b]thiothiophen-3-yl)ethyl)-6,7-dimethoxy-3,4-dihydroisoquinoline-2(1H)-formaldehyde]: 70.8%; `CCOc1cc2c(cc1OC)CCN(S(=O)(=O)c1cccnc1)[C@H]2CCc1c[nH]c2ccc(OC)cc12` [(S)-C55]: 20.5%. Take `COc1ccc2[nH]cc(CC[C@H]3c4cc(OC(F)(F)F)c(OC)cc4CCN3C=O)c2c1` [(S)-C63, (S)-7-trifluoromethoxy-1-(2-(5-methoxy-1H-indol-3-yl)ethyl)-6-methoxy-3,4-dihydroisoquinoline-2(1H)-formaldehyde]: the inhibition at 1 µM turned out to be 75.3%.

Consider `CCOc1cc2c(cc1OC)CCN(S(=O)(=O)c1ccccc1F)[C@H]2CCc1c[nH]c2ccc(OC)cc12` [(S)-C57, (S)-7-ethoxy-6-methoxy-1-(2-(5-methoxy-1H-indol-3-yl)ethyl)-2-(2-fluorophenyl)sulfonyl-1,2,3,4-tetrahydroisoquinoline], for which the inhibition at 1 µM (Compound concentration: 1 μM) worked out at 66.5%. Still for that read-out and setting: next, `CCOc1cc2c(cc1OC)CCN(S(=O)(=O)c1ccc(F)c(F)c1)[C@H]2CCc1c[nH]c2ccc(OC)cc12` [(S)-C51, (S)-7-ethoxy-6-methoxy-1-(2-(5-methoxy-1H-indol-3-yl)ethyl)-2-(3,4-difluorophenyl)sulfonyl-1,2,3,4-tetrahydroisoquinoline]: 37.9%; `CCOc1cc2c(cc1OC)CCN(C=O)[C@H]2CCc1c[nH]c2ccc(OC(F)F)cc12` [(S)-C77, (S)-7-ethoxy-6-methoxy-1-(2-(5-difluoromethoxy-1H-indol-3-yl)ethyl)-3,4-dihydroisoquinoline-2(1H)-formaldehyde]: 93.5%; `CCOc1cc2c(cc1OC)CCN(C=O)[C@H]2CCc1c[nH]c2ccc(C#N)cc12` [(S)-C65, (S)-7-ethoxy-6-methoxy-1-(2-(5-cyano-1H-indol-3-yl)ethyl)-3,4-dihydroisoquinoline-2(1H)-formaldehyde]: 68.7%. The same measure, in the same setting: the value for `CCOc1cc2c(cc1OC)CCN(S(=O)(=O)C1CCCCC1)[C@H]2CCc1c[nH]c2ccc(OC)cc12` [(S)-C49, (S)-7-ethoxy-6-methoxy-1-(2-(5-methoxy-1H-indol-3-yl)ethyl)-2-cyclohexylsulfonyl-1,2,3,4-tetrahydroisoquinoline] was 70.8%.
